The subject of series [1] is Rat Hepatocytes (rHep). Nature of the series: Metabolic stability in rat hepatocytes (rHep). Format: in vitro ADME. The conditions noted are these: n = 1 or geometric mean (n = 2-3). As to the method: Metabolic stability in rat hepatocytes was measured as described in J Comput Aided Mol Des 2015, 29, 795.
Series [2] addresses T1, hFAP (M39-A757) (Homo sapiens, UniProt Q12884).
T1 sequence (Q12884 39-757): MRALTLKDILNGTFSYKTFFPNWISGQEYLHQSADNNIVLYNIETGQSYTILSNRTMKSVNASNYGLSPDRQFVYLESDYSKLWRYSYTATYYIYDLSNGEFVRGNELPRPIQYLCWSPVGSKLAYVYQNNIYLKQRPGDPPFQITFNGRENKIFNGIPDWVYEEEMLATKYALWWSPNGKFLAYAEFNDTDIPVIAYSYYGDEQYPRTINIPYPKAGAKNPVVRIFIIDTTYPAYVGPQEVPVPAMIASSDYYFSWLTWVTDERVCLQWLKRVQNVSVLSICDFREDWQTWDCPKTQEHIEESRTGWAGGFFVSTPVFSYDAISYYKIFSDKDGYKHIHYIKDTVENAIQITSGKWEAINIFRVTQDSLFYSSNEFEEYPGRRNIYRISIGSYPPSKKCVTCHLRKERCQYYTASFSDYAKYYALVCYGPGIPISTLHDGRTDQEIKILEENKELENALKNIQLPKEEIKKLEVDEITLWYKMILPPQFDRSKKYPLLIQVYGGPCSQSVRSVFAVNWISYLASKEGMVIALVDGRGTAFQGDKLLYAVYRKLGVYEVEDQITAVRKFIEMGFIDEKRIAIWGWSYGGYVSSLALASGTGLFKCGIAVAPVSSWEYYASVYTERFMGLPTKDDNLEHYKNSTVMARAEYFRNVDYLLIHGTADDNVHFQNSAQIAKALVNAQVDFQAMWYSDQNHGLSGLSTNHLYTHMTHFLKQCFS
Briefly: biochemical.

Series [3] in a line: Caco-2 AB intrinsic permeability. Format: in vitro ADME. The settings on record: human, A to B intrinsic, n = 1 or average (n = 2), read-out: Caco2 AB Intrinsic Papp. As to the method: Caco-2 cell permeability was measured as described in Mol Pharm 2017, 14, 1601.
Series [4] concerns the target T2, Prolyl endopeptidase, Prolyl Oligopeptidase (hPREP) (Homo sapiens, UniProt P48147).
T2 sequence (P48147 1-710): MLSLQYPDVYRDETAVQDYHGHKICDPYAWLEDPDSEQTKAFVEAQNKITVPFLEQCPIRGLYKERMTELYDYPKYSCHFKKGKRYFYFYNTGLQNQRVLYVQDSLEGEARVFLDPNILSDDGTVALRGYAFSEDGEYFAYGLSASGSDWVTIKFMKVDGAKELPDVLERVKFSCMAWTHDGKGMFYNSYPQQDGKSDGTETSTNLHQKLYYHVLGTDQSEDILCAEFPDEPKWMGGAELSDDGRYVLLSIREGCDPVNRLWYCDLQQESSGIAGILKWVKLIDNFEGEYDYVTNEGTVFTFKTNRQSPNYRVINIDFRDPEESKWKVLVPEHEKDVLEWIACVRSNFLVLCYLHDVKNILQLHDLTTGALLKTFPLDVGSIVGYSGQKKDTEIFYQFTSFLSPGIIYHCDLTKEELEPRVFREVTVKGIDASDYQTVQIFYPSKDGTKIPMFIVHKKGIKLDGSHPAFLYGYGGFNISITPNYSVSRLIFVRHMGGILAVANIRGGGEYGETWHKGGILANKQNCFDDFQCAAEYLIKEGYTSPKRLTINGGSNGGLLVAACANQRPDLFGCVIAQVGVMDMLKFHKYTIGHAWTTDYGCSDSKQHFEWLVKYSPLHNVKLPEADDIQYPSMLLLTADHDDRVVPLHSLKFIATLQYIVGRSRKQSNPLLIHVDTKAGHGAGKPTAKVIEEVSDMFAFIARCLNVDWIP
Nature of the series: biochemical.

The nature of series [5]: Kinetic solubility. Format: physicochemical. The settings on record: kinetic from dmso stock, n = 1 or average (n = 2-4). As for the experimental part: Kinetic solubility was measured as described in Comput Aided Mol Des 2015, 29, 795.
The nature of series [6]: Metabolic stability in human liver microsomes (HLM). The settings on record: n = 1 or average (n = 2-3). It counts as in vitro ADME. As for the experimental part: Metabolic stability in HLM was measured as described in J Comput Aided Mol Des 2015, 29, 795.

Consider 1 molecule from patent US20260070899A1, “N-(2-(4-CYANOTHIAZOLIDIN-3-YL)-2-OXOETHYL)-QUINOLINE-4-CARBOXAMIDES” (AstraZeneca AB, priority 2022, published 2026).

A value given as a limit tells only on which side of the number the result lay.
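Wherever Kd is given: surface plasmon resonance direct binding to hFAP amine-coupled on a sensor chip, rising compound concentrations by single cycle kinetics, Kd from global fit of interaction models.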

Regarding `COCCOc1ccc2nccc(C(=O)NCC(=O)N3CSC[C@H]3C#N)c2c1` [Example 4, (R)—N-(2-(4-Cyanothiazolidin-3-yl)-2-oxoethyl)-6-(2-methoxyethoxy)quinoline-4-carboxamide], the “rHeps CLint” value in series [1] was under 1 μL/min/1E6. In addition, the Kd (usually the equilibrium constant for the complex coming apart) in series [2] was 0.057 nM. For the same molecule, the Papp A→B in series [3] was found to be 10 ×10⁻⁶ cm/s. Also, the midpoint of inhibition in series [4], the IC50, lay at 570 nM. Besides, the solubility (as a rule, the dissolved amount per volume that the medium holds) in series [5] is over 1000 µM. Further, the microsomal CLint (usually a measure of how fast metabolising enzymes remove a compound, apart from limits set by blood flow) in series [6] was under 3 µL/min/mg.
